From PubChem BioAssay (NCI)
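Growth conditions: 96-well plates. Treatment: test compound, 48 hours, 5 concentrations. Analysis: linear interpolation between bracketing concentrations; unreached endpoints set to highest concentration. Here, GI50 denotes the concentration required for 50% inhibition of growth. TGI denotes the concentration required for complete inhibition of growth.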

Columns and labels:
Test in all cases: NCI anticancer screen, dose series, 48 h
[1] = tested on: MDA-MB-468 breast
[2] = tested on: MDA-MB-435
[3] = tested on: HS 578T breast
[4] = tested on: A549 NSCLC
[5] = tested on: MOLT-4 leukemia
[6] = tested on: IGROV1 ovarian
[7] = tested on: MCF7 breast
[8] = tested on: SK-MEL-5 melanoma
[9] = tested on: CCRF-CEM leukemia
[10] = tested on: MALME-3M melanoma
[11] = tested on: OVCAR-5 ovarian
[12] = tested on: HT29 colon
[13] = tested on: OVCAR-3 ovarian
[14] = tested on: SN12C renal
[15] = tested on: BT-549 breast
[16] = tested on: COLO 205 colon
[17] = tested on: SF-295 CNS
[18] = tested on: NCI-H226 lung
[19] = tested on: PC-3 prostate
[20] = tested on: UO-31 renal
[21] = tested on: HCC-2998 colon
[22] = tested on: T-47D breast
[23] = tested on: A498 renal
[24] = tested on: HCT-116 colon
[25] = tested on: UACC-257 melanoma
[26] = tested on: MDA-MB-231 breast
[27] = tested on: NCI-H460 lung
[28] = tested on: HOP-62 NSCLC
[29] = tested on: SF-539 CNS
[30] = tested on: NCI-H23 lung
[31] = tested on: CAKI-1 renal
[32] = tested on: KM12 colon
[33] = tested on: LOX IMVI melanoma
[34] = tested on: 786-0 renal
[35] = tested on: SNB-19 CNS
[36] = tested on: OVCAR-8 ovarian
[37] = tested on: HCT-15 colon
[38] = tested on: HOP-92 NSCLC
[39] = tested on: SF-268 CNS
[40] = tested on: M14 melanoma
[41] = tested on: TK-10 renal
[42] = tested on: SNB-75 CNS
[43] = tested on: EKVX NSCLC
[44] = tested on: NCI-H522 lung
[45] = tested on: SR leukemia
[46] = tested on: RPMI-8226 leukemia
[47] = tested on: RXF 393 renal
[48] = tested on: SK-MEL-28 melanoma
[49] = tested on: SK-OV-3 ovarian
[50] = tested on: SW-620 colon
[51] = tested on: K-562 leukemia
[52] = tested on: U251 CNS
[53] = tested on: HL-60(TB) leukemia
[54] = tested on: ACHN renal
[55] = tested on: DU-145 prostate
[56] = tested on: UACC-62 melanoma
[57] = tested on: SK-MEL-2 melanoma
[58] = tested on: OVCAR-4 ovarian

Compound: O=C1c2ccccc2C(=O)c2c1ccc(C(Br)Br)c2Cl
- GI50 [1]: 2 µM
- TGI [1]: 4.54 µM

Compound: Cc1nc(Nc2nc(C)c3ccc(OCCN4CCOCC4)cc3n2)[nH]c(=O)c1C
- GI50 [2]: 4.28 µM
- TGI [2]: 15.8 µM
- GI50 [3]: 3.79 µM
- TGI [3]: 23.6 µM
- GI50 [1]: 1.72 µM
- TGI [1]: 3.8 µM
- GI50 [4]: 3.37 µM
- TGI [4]: 15.4 µM
- GI50 [5]: 3.05 µM
- TGI [5]: 22 µM
- GI50 [6]: 3.1 µM
- TGI [6]: 12.6 µM
- GI50 [7]: 4.15 µM
- TGI [7]: > 100 µM
- GI50 [8]: 2.29 µM
- TGI [8]: 6.87 µM
- GI50 [9]: 3.26 µM
- TGI [9]: 13.8 µM
- GI50 [10]: 2.38 µM
- TGI [10]: 9.06 µM
- GI50 [11]: 4.22 µM
- TGI [11]: 27.5 µM
- GI50 [12]: 3.01 µM
- TGI [12]: 9.94 µM
- GI50 [13]: 3.12 µM
- TGI [13]: 13.7 µM
- GI50 [14]: 3.46 µM
- TGI [14]: 19.5 µM
- GI50 [15]: 3.55 µM
- TGI [15]: 12.1 µM
- GI50 [16]: 2.25 µM
- TGI [16]: 5.58 µM
- GI50 [17]: 4.43 µM
- TGI [17]: 57.9 µM
- GI50 [18]: 2.86 µM
- TGI [18]: 11.1 µM
- GI50 [19]: 4.04 µM
- TGI [19]: 27 µM
- GI50 [20]: 2.95 µM
- TGI [20]: 15.2 µM
- GI50 [21]: 3.1 µM
- TGI [21]: 5.43 µM
- GI50 [22]: 4.36 µM
- TGI [22]: 43.5 µM
- GI50 [23]: 2.16 µM
- TGI [23]: 6.52 µM
- GI50 [24]: 3.09 µM
- TGI [24]: 12.3 µM
- GI50 [25]: 4.03 µM
- TGI [25]: 25.9 µM
- GI50 [26]: 2.45 µM
- TGI [26]: 6.05 µM
- GI50 [27]: 2.94 µM
- TGI [27]: 9.12 µM
- GI50 [28]: 4.59 µM
- TGI [28]: 20.4 µM
- GI50 [29]: 2.82 µM
- TGI [29]: 8.86 µM
- GI50 [30]: 2.53 µM
- TGI [30]: 5.91 µM
- GI50 [31]: 3.66 µM
- TGI [31]: 24.2 µM
- GI50 [32]: 3.14 µM
- TGI [32]: 10.8 µM
- GI50 [33]: 2.39 µM
- TGI [33]: 6.72 µM
- GI50 [34]: 3.75 µM
- TGI [34]: 18.2 µM
- GI50 [35]: 4.66 µM
- TGI [35]: 24.6 µM
- GI50 [36]: 4.04 µM
- TGI [36]: 17.9 µM
- GI50 [37]: 3.15 µM
- TGI [37]: 18.8 µM
- GI50 [38]: 2.91 µM
- TGI [38]: 9.9 µM
- GI50 [39]: 3.58 µM
- TGI [39]: 19 µM
- GI50 [40]: 4.36 µM
- TGI [40]: 17.4 µM
- GI50 [41]: 2.99 µM
- TGI [41]: 22.4 µM
- GI50 [42]: 1.92 µM
- TGI [42]: 8.83 µM
- GI50 [43]: 4.15 µM
- TGI [43]: 26.7 µM
- GI50 [44]: 2.45 µM
- TGI [44]: 8.57 µM
- GI50 [45]: 3.03 µM
- TGI [45]: 10.7 µM
- GI50 [46]: 2.79 µM
- TGI [46]: 8.33 µM
- GI50 [47]: 1.95 µM
- TGI [47]: 4.47 µM
- GI50 [48]: 3.64 µM
- TGI [48]: 14.3 µM
- GI50 [49]: 4.67 µM
- TGI [49]: 24.8 µM
- GI50 [50]: 3.39 µM
- TGI [50]: 20.7 µM
- GI50 [51]: 3.31 µM
- TGI [51]: 27.4 µM
- GI50 [52]: 4.16 µM
- TGI [52]: 51.4 µM
- GI50 [53]: 2.27 µM
- TGI [53]: 6.83 µM
- GI50 [54]: 3.85 µM
- TGI [54]: 19.4 µM
- GI50 [55]: 2.94 µM
- TGI [55]: 9.03 µM
- GI50 [56]: 2.56 µM
- TGI [56]: 8.19 µM
- GI50 [57]: 2.03 µM
- TGI [57]: 5.13 µM
- GI50 [58]: 2.54 µM
- TGI [58]: 7.74 µM
